In paper PMC5428354, “Screening of a natural compound library identifies emodin, a natural compound from Rheum palmatum Linn that inhibits DPP4” (PeerJ, 2017):
Several values for one entry are separate records, joined by “and”; a condition that tells them apart may be missing. Equal values may be shown once.

Assays:
DPP4 [1] = target: T1, DPP4 (Homo sapiens, UniProt P27487); assay: Dialysis assay followed by DPP4 assay; assay type: biochemical
Experimental: Dialysis assay was performed using Slide-A-Lyzer Dialysis Cassettes (Pierce, Shanghai, China). Briefly, 2 mg DPP4 protein was incubated with emodin or dimethyl sulfoxide (DMSO) in 4 ml diluted assay buffer for 10 min at 37 °C. Mixed reaction solution was loaded onto a dialysis cartridge using a syringe and incubated at 4 °C for 8 h. The samples were removed from Dialysis Cassettes by syringes for DPP4 assay.

[2] = Blood glucose levels after oral emodin; assay type: in vivo, mice; set-up: Blood glucose: unit not given here; details: 30 mg/kg P.O.; for Blood glucose: ob/ob mice, individual animals
Experimental: Balb/c mice (male, six weeks) and ob/ob (-/-) mice (male, six weeks) were purchased from the Shanghai SLAC Laboratory Animal Co. Ltd. (Shanghai, China) and maintained in an air-conditioned room at 20–25 °C under a 12 h dark/light cycle and fed certified standard chow and tap water ad libitum. Experiments were conducted in compliance with the Guide for the Care and Use of Laboratory Animals. Mice were orally administered with emodin (3, 10, or 30 mg /kg) and had their blood collected at 0.5, 1, 2, and 4 h after emodin treatment. The samples were subjected to plasma isolation immediately after collection. Plasma samples were tested for DPP4 activity with a DPP4-Glo assay kit (Promega, Beijing, China) according to the manufacturer’s protocol. The experimental protocol was approved by Animal Care and Use Committee of Xiamen University(XM2015030514).
To test the inhibitory activity of emodin on DPP4 in vivo, an animal experiment was conducted by oral administration of emodin (3, 10 and 30 mg/kg, P.O., n = 5) to Balb/c mice, followed by plasma collection at different time points to measure DPP4 activity in the blood. Plasma samples were collected at 0, 0.5, 1, 2 and 4 h after the oral dose of emodin, and plasma DPP4 activity was measured with a DPP4-Glo assay kit. […] The lowest does of emodin (3 mg/kg) decreased plasma DPP4 activity from baseline, although these levels rebounded after 1 h, whereas 10 and 30 mg/kg doses of emodin decreased plasma DPP4 activity and maintained the lower levels until 2 h post-treatment (Fig. 4). This dose-dependent manner is probably due to the pharmacokinetics of emodin, and 10 and 30 mg/kg have maximized the pharmacokinetic coverage, while 3 mg/kg emodin is only sufficient to maintain 1 h DPP4 inhibition in vivo. In the subsequent experiment, emodin (30 mg/kg, P.O.) was administered on Balb/C mice (n = 5) or ob/ob (-/-) mice (n = 5). The DPP4 activity, blood glucoselevels and GLP-1 activity were tested 0, 1, 2, 4, 8 h after administration. […] This downregulation maintained 2 h in Balb/C mice, and 4 h in ob/ob (-/-) mice, which rebounded afterwards (Fig. 5A). […] Plasma GLP-1 activity was also measured.

DPP9 = target: T2, DPP9 (Homo sapiens, UniProt Q86TI2); assay: DPP9 activity assay (BPS Bioscience kit); assay type: biochemical; details: 100 µM, Well #1-#3;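 for DPP9 assay, Emission (450 nm): 20 ng DPP9 per 100 µl reaction with DPP substrate 1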
T2 construct: purchased BPS Bioscience 800209

DPP4 [3] = target: T1, DPP4; assay: Dialysis assay followed by DPP4 assay; assay type: biochemical; details: 0 hr of dialysis; triplicate
plasma DPP4 activity = target: T3, plasma DPP4 activity (Mus musculus, UniProt P28843); assay: Plasma DPP4 activity after oral emodin (DPP4-Glo assay kit); assay type: in vivo, mice; details: for plasma DPP4 activity, raw signal / DPP4 activity, raw signal: individual animals; for DPP4 activity, raw signal: C57BL/6 (head)
T3 construct: followed by plasma collection at different time points to measure DPP4 activity in the blood; from tissue; host or cells: mouse plasma (Balb/c and ob/ob mice)

B6C3F1 mice = system: B6C3F1 mice; set-up: method as in National Toxicology Program, 2001; Wang & Chung, 1997; details: 280–2,500 ppm, ref National Toxicology Program, 2001, Wang & Chung, 1997, cited from earlier work

T1 sequence (P27487 whole entry, species assumed): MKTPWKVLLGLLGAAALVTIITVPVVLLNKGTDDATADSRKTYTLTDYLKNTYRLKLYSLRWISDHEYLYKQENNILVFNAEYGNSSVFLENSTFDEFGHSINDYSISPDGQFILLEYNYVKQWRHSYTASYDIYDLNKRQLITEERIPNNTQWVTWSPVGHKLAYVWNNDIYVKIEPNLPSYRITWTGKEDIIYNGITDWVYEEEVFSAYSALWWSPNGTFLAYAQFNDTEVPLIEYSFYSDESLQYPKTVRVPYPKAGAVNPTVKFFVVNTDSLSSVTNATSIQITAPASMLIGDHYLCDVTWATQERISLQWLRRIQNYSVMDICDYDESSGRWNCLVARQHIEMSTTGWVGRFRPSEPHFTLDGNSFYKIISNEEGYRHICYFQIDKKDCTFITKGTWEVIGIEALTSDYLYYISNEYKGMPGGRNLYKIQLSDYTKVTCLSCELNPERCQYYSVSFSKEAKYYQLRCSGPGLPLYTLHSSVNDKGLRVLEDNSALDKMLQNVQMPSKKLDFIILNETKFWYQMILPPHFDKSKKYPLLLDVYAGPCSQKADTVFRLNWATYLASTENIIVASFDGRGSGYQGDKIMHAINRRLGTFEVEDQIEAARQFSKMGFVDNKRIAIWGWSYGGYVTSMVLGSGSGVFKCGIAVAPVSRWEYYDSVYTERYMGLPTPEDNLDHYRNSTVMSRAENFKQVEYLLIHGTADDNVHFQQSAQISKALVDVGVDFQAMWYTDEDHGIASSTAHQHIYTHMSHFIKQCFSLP
T2 sequence (Q86TI2 whole entry): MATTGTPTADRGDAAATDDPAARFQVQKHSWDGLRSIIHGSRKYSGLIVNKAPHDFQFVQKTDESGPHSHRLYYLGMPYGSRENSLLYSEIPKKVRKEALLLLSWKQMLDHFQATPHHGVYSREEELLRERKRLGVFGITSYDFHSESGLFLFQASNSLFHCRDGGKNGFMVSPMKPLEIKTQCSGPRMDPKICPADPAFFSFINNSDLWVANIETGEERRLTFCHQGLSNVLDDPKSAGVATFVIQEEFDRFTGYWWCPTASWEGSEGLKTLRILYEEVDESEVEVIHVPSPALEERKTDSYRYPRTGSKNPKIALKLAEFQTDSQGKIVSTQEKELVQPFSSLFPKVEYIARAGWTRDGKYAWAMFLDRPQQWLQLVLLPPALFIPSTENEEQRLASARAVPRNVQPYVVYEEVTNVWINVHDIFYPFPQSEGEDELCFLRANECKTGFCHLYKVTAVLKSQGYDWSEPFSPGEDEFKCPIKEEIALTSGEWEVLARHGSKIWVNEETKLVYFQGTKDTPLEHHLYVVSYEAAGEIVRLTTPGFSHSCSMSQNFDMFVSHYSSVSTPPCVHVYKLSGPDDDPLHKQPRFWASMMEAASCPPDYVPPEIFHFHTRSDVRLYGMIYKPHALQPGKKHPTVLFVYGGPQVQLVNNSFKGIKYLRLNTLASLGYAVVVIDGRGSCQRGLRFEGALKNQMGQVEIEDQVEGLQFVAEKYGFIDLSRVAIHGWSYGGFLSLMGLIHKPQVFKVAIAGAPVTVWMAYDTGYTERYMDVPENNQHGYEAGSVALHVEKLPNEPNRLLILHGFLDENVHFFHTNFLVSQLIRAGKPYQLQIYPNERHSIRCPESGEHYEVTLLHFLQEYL
T3 sequence (P28843 37-760 limits assumed): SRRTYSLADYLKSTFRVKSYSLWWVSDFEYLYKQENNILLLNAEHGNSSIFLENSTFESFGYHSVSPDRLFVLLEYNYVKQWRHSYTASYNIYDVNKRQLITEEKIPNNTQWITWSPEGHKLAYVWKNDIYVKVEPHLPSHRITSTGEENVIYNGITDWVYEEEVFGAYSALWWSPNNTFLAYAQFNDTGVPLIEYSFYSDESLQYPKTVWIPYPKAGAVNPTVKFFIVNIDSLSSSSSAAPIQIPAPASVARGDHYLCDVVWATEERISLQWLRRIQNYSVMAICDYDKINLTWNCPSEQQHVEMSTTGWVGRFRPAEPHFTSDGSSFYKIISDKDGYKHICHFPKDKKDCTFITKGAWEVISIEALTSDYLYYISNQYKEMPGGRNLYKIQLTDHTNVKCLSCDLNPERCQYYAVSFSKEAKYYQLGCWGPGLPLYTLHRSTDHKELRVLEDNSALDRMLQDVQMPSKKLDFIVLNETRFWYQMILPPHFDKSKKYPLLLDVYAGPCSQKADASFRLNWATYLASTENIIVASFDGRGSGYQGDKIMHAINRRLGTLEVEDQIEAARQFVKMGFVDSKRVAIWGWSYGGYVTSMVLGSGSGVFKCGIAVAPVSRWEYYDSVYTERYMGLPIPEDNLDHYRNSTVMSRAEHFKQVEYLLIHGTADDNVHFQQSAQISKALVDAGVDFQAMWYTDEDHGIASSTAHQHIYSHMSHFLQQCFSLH

Cc1cc(O)c2c(c1)C(=O)c1cc(O)cc(O)c1C2=O [Emodin]
DPP4 activity in dialysis assay (DPP4 [1]; 8 hr of dialysis, triplicate): 90 % of DMSO and 88 % of DMSO and 85 % of DMSO | DPP4 activity in dialysis assay, raw signal (DPP4 [1]; 8 hr of dialysis, triplicate): 4500000 RLU and 4400000 RLU and 4250000 RLU | manner of binding to the DPP4 active site (DPP4 [1]; dialysis 8 h at 4 °C): reversible manner | effect on blood glucose levels from baseline ([2]; both Balb/C mice and ob/ob (-/-) mice): significantly downregulated | time for which downregulation of blood glucose was maintained ([2]; both Balb/C mice and ob/ob (-/-) mice, baseline again at 8 h): 4 h | Blood glucose ([2]; 0 hours (baseline)): 18.6 and 13.3 and 11.5 and 12.1 and 14.4 | Blood glucose ([2]; 1 hours): 9.4 and 11.3 and 13.1 and 10.9 and 12 | Blood glucose ([2]; 2 hours): 11 and 9.2 and 8.1 and 9.5 and 10.9 | Blood glucose ([2]; 4 hours): 8 and 10.3 and 8.2 and 7.3 and 9.2 | Blood glucose ([2]; 8 hours): 14.7 and 14.2 and 13.9 and 12.8 and 13.1 | DPP9 assay, Emission (450 nm) (DPP9): 47887 and 46825 and 46023 | DPP9 activity (DPP9; DMSO = Ctrl): 98.3 % of Ctrl and 96.1 % of Ctrl and 94.5 % of Ctrl | DPP4 activity in dialysis assay (DPP4 [3]): 55 % of DMSO and 58 % of DMSO and 62 % of DMSO | DPP4 activity in dialysis assay, raw signal (DPP4 [3]): 2750000 RLU and 2900000 RLU and 3100000 RLU | time for which plasma DPP4 activity stayed decreased (plasma DPP4 activity; 3 mg/kg P.O., Balb/c mice, rebounded afterwards): 1 h | plasma DPP4 activity, raw signal (plasma DPP4 activity; 3 mg/kg P.O., time 0 h (baseline), Balb/c mice): 200500 and 223040 and 210853 | plasma DPP4 activity, raw signal (plasma DPP4 activity; 3 mg/kg P.O., time 0.5 h, Balb/c mice): 157120 and 186480 and 184560 | plasma DPP4 activity, raw signal (plasma DPP4 activity; 3 mg/kg P.O., time 2 h, Balb/c mice): 291827 and 237493 and 317253 | plasma DPP4 activity, raw signal (plasma DPP4 activity; 3 mg/kg P.O., time 4 h, Balb/c mice): 377573 and 331360 and 321880 | plasma DPP4 activity, raw signal (plasma DPP4 activity; 10 mg/kg P.O., time 0 h (baseline), Balb/c mice): 349733 and 267840 and 314147 | plasma DPP4 activity, raw signal (plasma DPP4 activity; 10 mg/kg P.O., time 1 h, Balb/c mice): 158860 and 133520 and 164280 | plasma DPP4 activity, raw signal (plasma DPP4 activity; 10 mg/kg P.O., time 2 h, Balb/c mice): 158760 and 116813 and 222440 | plasma DPP4 activity, raw signal (plasma DPP4 activity; 10 mg/kg P.O., time 4 h, Balb/c mice): 367160 and 355600 and 350787 | time for which downregulation of DPP4 activity was maintained (plasma DPP4 activity; 30 mg/kg P.O., Balb/C mice, n = 5): 2 h | DPP4 activity, raw signal (plasma DPP4 activity; 30 mg/kg P.O., 0 hours (baseline)): 2962300 and 3555100 and 2704100 and 2803100 and 3111100 | DPP4 activity, raw signal (plasma DPP4 activity; 30 mg/kg P.O., 1 hours): 2755900 and 3040800 and 2268700 and 2388700 and 2836800 | DPP4 activity, raw signal (plasma DPP4 activity; 30 mg/kg P.O., 2 hours): 3055900 and 3015200 and 2510000 and 2257000 and 2971200 | DPP4 activity, raw signal (plasma DPP4 activity; 30 mg/kg P.O., 4 hours): 2708000 and 3031400 and 2814800 and 2664500 and 2844400 | DPP4 activity, raw signal (plasma DPP4 activity; 30 mg/kg P.O., 8 hours): 3130600 and 3310000 and 2020300 and 3224400 and 3166700 | effect on DPP4 activity (plasma DPP4 activity; 30 mg/kg P.O., both Balb/C mice and ob/ob (-/-) mice): significant downregulation | time for which downregulation of DPP4 activity was maintained (plasma DPP4 activity; 30 mg/kg P.O., ob/ob (-/-) mice, n = 5): 4 h | plasma DPP4 activity, raw signal (plasma DPP4 activity; 30 mg/kg P.O., time 0 h (baseline), Balb/c mice): 290800 and 216573 and 224480 | plasma DPP4 activity, raw signal (plasma DPP4 activity; 30 mg/kg P.O., time 0.5 h, Balb/c mice): 175387 and 222147 and 170307 | plasma DPP4 activity, raw signal (plasma DPP4 activity; 30 mg/kg P.O., time 1 h, Balb/c mice): 159040 and 152000 and 181707 | effect on plasma DPP4 activity (plasma DPP4 activity; 3, 10 and 30 mg/kg, P.O., Balb/c mice, n = 5): decreased the plasma DPP4 activity in a dose-dependent manner | time until which lower plasma DPP4 activity was maintained (plasma DPP4 activity; 10 and 30 mg/kg P.O., Balb/c mice): 2 h | carcinogenic activity (B6C3F1 mice; female B6C3F1 mice): no evidence of carcinogenic activity | nephropathy (B6C3F1 mice; female mice): increased incidences | renal tubule pigmentation (B6C3F1 mice; male and female mice): increased incidences
